The source of these data is patent US5169845A, “Piperazine derivatives” (John Wyeth & Brother Limited, priority 1990, dated 1992).

One assay addresses T1, 5-HT1A receptor (Rattus norvegicus, UniProt P19327).
T1 construct: rat hippocampal membrane homogenate; from tissue; host or cells: rat hippocampal membrane homogenate
T1 sequence (P19327 1-422): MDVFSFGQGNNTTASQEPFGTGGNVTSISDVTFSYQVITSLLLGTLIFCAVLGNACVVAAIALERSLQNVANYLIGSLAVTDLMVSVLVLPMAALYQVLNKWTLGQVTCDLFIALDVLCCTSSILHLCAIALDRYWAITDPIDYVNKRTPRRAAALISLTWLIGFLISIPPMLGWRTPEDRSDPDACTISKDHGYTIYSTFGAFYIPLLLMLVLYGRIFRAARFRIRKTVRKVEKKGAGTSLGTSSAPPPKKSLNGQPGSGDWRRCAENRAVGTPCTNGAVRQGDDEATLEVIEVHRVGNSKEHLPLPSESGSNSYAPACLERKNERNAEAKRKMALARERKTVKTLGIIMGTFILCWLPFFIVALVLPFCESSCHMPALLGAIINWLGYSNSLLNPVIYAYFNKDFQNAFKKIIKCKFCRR
The experiment in a line: 5-HT1A receptor binding activity in rat hippocampal membrane homogenate. On the procedure:
The compounds of the invention were tested for 5-HT1A receptor binding activity in rat hippocampal membrane homogenate by the method of B S Alexander and M D Wood, J Pharm Pharmacol, 1988, 40, 888-891.

In another assay the test system is α1. The assay can be described thus: affinity for the α1 site (procedure of A L Marrow et al). Format: binding.

On to `COc1ccccc1N1CCN(CC(C(=O)NC(C)(C)C)c2ccccn2)CC1` (stereo not shown) [Example 1, N-tert-Butyl-3-[4-(2-methoxyphenyl)piperazin-1-yl]-2-(2-pyridyl)propanamide], for which the values for the IC50 at 5-HT1A receptor and with α1 were 38 nM and 2900 nM, respectively.

As for `COc1ccccc1N1CCN(CCC(C(=O)N2CCCCCC2)c2cccs2)CC1` (stereo not shown) [Example 2, 2,3,4,5,6,7-Hexahydro-1-[2-(2-thiophenyl)-4-(1-(4-(2-methoxyphenyl)piperazinyl))]butyryl-1H-azepine], the figures for the IC50 at 5-HT1A receptor and in the assay with α1 were 0.8 nM and 147 nM, respectively.
